Holding throughout (format): biochemical
The target of one experiment is CDK6/CycD3 (Homo sapiens, UniProt Q00534). Nature of the experiment: CDK kinase selectivity (HTRF / ADP-Glo). The note with it: compound at 0.1 µM; read-out: Inhibition rate CDK6/CycD3. Here is the method:
(§1) The selectivity of the test compounds against CDK kinases was detected. The compounds were tested at a concentration of 0.1 µM, and the inhibition rate of CDK kinases by the compounds was detected in duplicate wells, mainly using HTRF and ADP-Glo detection methods.
(§2) The HTRF detection method was conducted as follows: 2-fold ATP/substrate solution and 2-fold kinase/metal ion solution were prepared respectively with a kinase reaction buffer, and 25 nL of diluted compound solution was transferred to a 384-well detection plate with Echo 655. After centrifugation, the plate was added with 2.5 µL of 2-fold kinase/metal ion solution and incubated at 25°C for 10 minutes. After 10 minutes, 2.5 µL of 2-fold substrate/ATP solution was added to the 384-well detection plate and incubated at 25°C for 60 minutes. 2 kinase detection reagent (XL665 and antibody) was prepared with detection buffer, and 5 µL of kinase detection reagent was added to the 384-well detection plate and incubated at 25°C for 60 minutes. The fluorescence signals at 620 nm (Cryptate) and 665 nm (XL665) were read by the microplate reader, and the ratio and the inhibition rate of kinase activity by the compound were calculated.
(§3) The ADP-Glo detection method was conducted as follows. 2-fold ATP/substrate solution and 2-fold kinase/metal ion solution were prepared respectively with a kinase reaction buffer. 20 nL of diluted compound solution was transferred to a 384-well detection plate by Echo 655. After centrifuged, the 384-well detection plate was added with 2 µL of 2 × kinase/metal ion solution, and incubated at 25°C for 10 minutes. After 10 minutes, the 384-well detection plate was added with 2 µL of 2 × substrate/ATP solution and incubated at 25°C for 60 minutes. 4 µL of ADP-Glo reagent was added to each well and incubated at room temperature for 40 minutes. 10 µL of ADP detection reagent was added to each well and incubated at room temperature for 40 minutes. The chemiluminescent signal was detected with a microplate reader and the inhibition rate of kinase activity was calculated.
A general note: TR-FRET usually uses a lanthanide donor and a delayed reading to cut background.

A further experiment concerns the target CDK1/CycE1 (Homo sapiens, UniProt P06493). Nature of the experiment: CDK kinase selectivity (HTRF / ADP-Glo). The note with it: compound at 0.1 µM; read-out: Inhibition rate CDK1/CycE1. How it is done:
as §1, §2, §3

For the next experiment, the target named is CDK19/CycC (Homo sapiens, UniProt Q9BWU1). Nature of the experiment: CDK kinase selectivity (HTRF / ADP-Glo). The note with it: compound at 0.1 µM; read-out: Inhibition rate CDK19/CycC. Here is the method:
as §1, §2, §3

Another experiment has as its target CDK3/CycE1 (Homo sapiens, UniProt Q00526). Nature of the experiment: CDK kinase selectivity (HTRF / ADP-Glo). The note with it: compound at 0.1 µM; read-out: Inhibition rate CDK3/CycE1. Here is the method:
as §1, §2, §3

The target in the next experiment is CDK6/CycD 1 (Homo sapiens, UniProt Q00534). Description: CDK kinase selectivity (HTRF / ADP-Glo). The note with it: compound at 0.1 µM; read-out: Inhibition rate CDK6/CycD 1. Here is the method:
as §1, §2, §3

In another experiment the target is CDK1/CycB1 (Homo sapiens, UniProt P06493). Nature of the experiment: CDK kinase selectivity (HTRF / ADP-Glo). The note with it: compound at 0.1 µM; read-out: Inhibition rate CDK1/CycB1. How it is done: as §1, §2, §3
The next experiment deals with RET (Homo sapiens, UniProt P07949). Nature of the experiment: Kinase selectivity, inhibition rate at 10 nM (caliper mobility shift assay). The note with it: compound at 10 nM. How it is done:
(§4) Compounds were tested at a concentration of 10 nM with detection in duplicate wells, or tested at 10 concentrations starting from 10 µM with three-fold serial dilutions, with detection in duplicate wells.
(§5) The inhibitory effect of the compounds on the activity of CDK9 protein kinase was detected by the caliper mobility shift assay method. 250 nL of the compound at 100-fold final concentration was transferred to a target 384-well-plate with a dispenser Echo 550. A kinase solution at 2.5-fold final concentration was prepared using 1× kinase buffer. 10 µL of the kinase solution at 2.5-fold final concentration was added to the compound well and positive control well respectively. 10 µL of 1× kinase buffer was added to the negative control well. The 384-well plate was centrifuged at 1000 rpm for 30 seconds and incubated at room temperature for 10 minutes. A mixed solution of ATP and kinase substrate at 5/3-fold final concentration was prepared with 1× kinase buffer, and to the 384-well plate was added with 15 µL per well of the mixed solution of ATP and substrate at 5/3-fold final concentration to start the reaction. The plate was centrifuged at 1000 rpm for 30 seconds, shaken to mix evenly, and incubated at room temperature for a corresponding time. 30 µL of detection stopping solution was added to terminate the kinase reaction. The 384-well plate was centrifuged at 1000 rpm for 30 seconds and shaken to mix evenly. The conversion rate was read with Caliper EZ Reader. The percent conversion inhibition rate = (% positive control conversion rate mean - % sample conversion rate / (% positive control conversion rate mean - % negative control conversion rate mean). Among them: negative control wells represent the conversion rate readings of kinase buffer background wells; positive control wells represent the conversion rate readings of wells without inhibition by compound. With the log value of concentration as the x-axis and the percentage inhibition rate as the y-axis, a dose-response curve was fitted using the log (inhibitor) vs. response -Variable slope of the analysis software GraphPad Prism 5 to obtain the IC50 value of each compound on enzyme activity. Calculation formula: y=Bottom + (Top-Bottom)/(1+10^((LogIC50-x) × hillslope)), x: logarithm of inhibitor concentration; y: % inhibition rate.
(§6) According to the description of the above experiment on kinase activity inhibition, some compounds were tested for their selective inhibition rate against the kinases of CDK7, CDK9, JAK1, JAK2, JAK3, ITK, RET, TYK2, and LRRK2 at 10 nM. The results are shown in Table 3 below: (Inhibition rate range: A>50%; B: 25-49%; C: <25%): […]

The target in the next experiment is TYK2 (Homo sapiens, UniProt P29597). Described as above. The note with it: compound at 10 nM. Here is the method:
as §4, §5, §6

For the next experiment, the target named is JAK2 (Homo sapiens, UniProt O60674). Described as above. The note with it: compound at 10 nM. Here is the method:
as §4, §5, §6

In another experiment the target is JAK1 (Homo sapiens, UniProt P23458). Described as above. The note with it: compound at 10 nM. Here is the method: as §4, §5, §6
Another experiment concerns the target ITK (Homo sapiens, UniProt Q08881). Described as above. The note with it: compound at 10 nM. How it is done:
as §4, §5, §6

The next experiment addresses LRRK2 (Homo sapiens, UniProt Q5S007). The description is as above. The note with it: compound at 10 nM. How it is done:
as §4, §5, §6

Another experiment addresses CDK7 (Homo sapiens, UniProt P50613). The experiment is described as above. The note with it: compound at 10 nM. Here is the method: as §4, §5, §6
In a further experiment the target is JAK3 (Homo sapiens, UniProt P52333). Described as above. The note with it: compound at 10 nM. Here is the method: as §4, §5, §6

Data on 1 compound can be found in patent publication EP4610262A1, “MACROCYCLIC COMPOUND AS CDK9 INHIBITOR AND USE THEREOF” (Artivila Biopharma, priority 2022, dated 2024).

Chain of CDK1/CycE1 (P24864 whole entry): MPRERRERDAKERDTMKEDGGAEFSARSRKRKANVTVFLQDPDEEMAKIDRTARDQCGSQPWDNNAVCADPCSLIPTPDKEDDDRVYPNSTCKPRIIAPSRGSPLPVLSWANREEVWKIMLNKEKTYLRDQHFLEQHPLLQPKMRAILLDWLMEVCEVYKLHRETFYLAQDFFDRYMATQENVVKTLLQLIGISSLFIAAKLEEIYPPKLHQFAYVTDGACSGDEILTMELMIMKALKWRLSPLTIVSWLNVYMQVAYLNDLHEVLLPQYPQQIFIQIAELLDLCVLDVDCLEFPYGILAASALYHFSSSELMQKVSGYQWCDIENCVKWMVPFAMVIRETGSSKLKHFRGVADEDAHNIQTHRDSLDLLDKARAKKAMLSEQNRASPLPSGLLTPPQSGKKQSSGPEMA
Chain of CDK1/CycE1 (P06493 whole entry): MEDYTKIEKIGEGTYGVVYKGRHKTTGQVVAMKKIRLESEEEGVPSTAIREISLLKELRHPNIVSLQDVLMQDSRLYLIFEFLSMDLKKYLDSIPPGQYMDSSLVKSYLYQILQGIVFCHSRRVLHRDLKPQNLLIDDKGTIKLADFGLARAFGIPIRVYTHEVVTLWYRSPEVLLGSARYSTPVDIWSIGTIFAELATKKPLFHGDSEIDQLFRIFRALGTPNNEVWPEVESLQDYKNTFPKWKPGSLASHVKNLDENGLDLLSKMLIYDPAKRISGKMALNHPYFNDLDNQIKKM
Chain of CDK3/CycE1 (P24864 whole entry): as the sequence (P24864 whole entry) above
Chain of CDK3/CycE1 (Q00526 whole entry): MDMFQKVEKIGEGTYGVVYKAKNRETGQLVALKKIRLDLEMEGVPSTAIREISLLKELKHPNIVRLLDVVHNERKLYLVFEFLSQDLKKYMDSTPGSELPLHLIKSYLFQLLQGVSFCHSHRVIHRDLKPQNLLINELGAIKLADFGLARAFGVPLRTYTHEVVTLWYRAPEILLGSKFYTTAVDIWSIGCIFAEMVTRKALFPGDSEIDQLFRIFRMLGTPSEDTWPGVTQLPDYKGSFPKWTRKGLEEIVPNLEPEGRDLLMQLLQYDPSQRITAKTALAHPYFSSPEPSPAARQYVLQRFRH
Chain of JAK1 (P23458 whole entry): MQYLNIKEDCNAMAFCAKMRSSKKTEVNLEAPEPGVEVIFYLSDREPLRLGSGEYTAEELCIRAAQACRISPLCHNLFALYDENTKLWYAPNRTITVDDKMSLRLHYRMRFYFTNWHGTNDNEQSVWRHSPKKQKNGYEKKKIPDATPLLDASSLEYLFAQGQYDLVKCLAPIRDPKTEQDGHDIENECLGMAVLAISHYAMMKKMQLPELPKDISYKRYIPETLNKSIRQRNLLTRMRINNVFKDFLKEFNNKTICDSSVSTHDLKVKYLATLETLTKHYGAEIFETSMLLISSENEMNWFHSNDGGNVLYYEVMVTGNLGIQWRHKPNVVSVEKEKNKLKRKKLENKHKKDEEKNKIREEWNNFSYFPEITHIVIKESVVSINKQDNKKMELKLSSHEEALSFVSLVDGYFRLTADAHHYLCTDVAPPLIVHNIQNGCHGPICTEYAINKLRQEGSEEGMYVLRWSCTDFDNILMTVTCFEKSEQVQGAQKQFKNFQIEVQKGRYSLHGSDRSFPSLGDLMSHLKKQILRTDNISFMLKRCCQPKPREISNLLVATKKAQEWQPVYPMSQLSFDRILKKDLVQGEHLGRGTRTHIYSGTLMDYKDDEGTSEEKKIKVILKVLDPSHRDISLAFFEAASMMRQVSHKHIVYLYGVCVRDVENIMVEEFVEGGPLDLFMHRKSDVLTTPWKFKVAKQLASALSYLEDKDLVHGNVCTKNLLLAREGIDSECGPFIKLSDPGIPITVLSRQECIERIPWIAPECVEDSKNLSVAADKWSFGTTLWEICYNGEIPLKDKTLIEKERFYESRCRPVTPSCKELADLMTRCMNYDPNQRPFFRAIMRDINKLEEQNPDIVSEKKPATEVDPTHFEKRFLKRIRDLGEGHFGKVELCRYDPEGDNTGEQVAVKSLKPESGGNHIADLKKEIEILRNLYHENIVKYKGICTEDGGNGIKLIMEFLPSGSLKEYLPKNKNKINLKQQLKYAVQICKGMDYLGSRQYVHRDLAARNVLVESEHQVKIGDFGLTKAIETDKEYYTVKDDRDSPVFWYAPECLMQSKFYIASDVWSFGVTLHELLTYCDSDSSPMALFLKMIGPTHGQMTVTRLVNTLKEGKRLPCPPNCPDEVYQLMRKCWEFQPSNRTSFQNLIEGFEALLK
Chain of JAK3 (P52333 whole entry): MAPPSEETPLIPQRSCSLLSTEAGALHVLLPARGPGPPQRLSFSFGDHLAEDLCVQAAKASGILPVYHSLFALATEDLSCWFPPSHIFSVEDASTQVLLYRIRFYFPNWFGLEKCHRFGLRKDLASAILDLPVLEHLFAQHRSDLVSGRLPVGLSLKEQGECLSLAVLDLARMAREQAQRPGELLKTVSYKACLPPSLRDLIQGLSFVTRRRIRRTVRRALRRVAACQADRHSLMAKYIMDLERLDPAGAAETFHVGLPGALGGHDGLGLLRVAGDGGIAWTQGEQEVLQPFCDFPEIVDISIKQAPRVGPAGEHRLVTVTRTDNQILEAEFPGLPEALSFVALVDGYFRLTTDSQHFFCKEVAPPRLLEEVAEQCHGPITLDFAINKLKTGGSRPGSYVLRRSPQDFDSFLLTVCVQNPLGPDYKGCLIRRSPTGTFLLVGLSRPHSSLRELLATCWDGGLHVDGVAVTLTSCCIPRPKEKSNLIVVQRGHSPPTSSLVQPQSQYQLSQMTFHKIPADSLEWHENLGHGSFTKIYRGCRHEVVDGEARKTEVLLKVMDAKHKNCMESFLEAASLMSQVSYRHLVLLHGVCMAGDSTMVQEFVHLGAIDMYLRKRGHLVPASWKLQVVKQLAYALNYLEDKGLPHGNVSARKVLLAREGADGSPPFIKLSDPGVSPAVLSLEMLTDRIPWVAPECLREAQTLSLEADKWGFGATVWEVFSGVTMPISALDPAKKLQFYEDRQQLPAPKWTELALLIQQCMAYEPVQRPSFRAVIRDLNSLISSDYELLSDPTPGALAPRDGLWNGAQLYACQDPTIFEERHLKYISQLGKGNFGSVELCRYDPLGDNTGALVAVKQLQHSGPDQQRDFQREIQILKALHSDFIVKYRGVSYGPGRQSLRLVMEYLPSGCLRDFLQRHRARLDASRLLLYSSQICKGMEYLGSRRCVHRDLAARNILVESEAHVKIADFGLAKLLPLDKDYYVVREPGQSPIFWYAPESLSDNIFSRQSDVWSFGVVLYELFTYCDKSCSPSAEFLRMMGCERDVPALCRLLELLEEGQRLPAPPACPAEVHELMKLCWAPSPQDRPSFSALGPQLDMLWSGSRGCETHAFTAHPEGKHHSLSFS
Chain of CDK6/CycD 1 (Q00534 whole entry): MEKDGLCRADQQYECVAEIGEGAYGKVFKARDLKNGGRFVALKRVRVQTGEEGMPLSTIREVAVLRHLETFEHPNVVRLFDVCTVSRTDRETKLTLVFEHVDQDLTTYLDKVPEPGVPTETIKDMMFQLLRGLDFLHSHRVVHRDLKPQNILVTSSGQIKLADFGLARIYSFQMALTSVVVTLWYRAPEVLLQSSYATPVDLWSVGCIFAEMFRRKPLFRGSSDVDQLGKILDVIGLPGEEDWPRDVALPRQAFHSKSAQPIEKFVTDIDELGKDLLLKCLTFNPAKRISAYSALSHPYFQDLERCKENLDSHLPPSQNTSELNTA
Chain of CDK6/CycD 1 (P24385 whole entry partner): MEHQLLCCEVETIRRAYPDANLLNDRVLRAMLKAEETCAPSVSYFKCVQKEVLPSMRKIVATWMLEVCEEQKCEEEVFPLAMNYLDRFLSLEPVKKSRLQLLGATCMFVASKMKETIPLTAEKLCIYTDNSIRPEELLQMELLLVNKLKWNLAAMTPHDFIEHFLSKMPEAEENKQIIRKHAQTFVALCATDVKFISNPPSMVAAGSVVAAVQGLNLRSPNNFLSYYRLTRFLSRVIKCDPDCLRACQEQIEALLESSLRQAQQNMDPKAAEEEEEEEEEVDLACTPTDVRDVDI
Chain of CDK6/CycD3 (Q00534 whole entry, species assumed): as the sequence (Q00534 whole entry) above
Chain of CDK6/CycD3 (P30281 whole entry partner, species assumed): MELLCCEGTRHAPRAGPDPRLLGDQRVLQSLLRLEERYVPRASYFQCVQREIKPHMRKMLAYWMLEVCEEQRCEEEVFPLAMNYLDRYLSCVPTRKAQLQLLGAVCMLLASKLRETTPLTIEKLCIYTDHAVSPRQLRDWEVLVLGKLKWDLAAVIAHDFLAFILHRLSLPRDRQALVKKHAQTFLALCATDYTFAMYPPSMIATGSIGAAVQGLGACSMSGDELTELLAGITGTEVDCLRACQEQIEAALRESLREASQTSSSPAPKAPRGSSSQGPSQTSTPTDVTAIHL
Chain of ITK (Q08881 whole entry): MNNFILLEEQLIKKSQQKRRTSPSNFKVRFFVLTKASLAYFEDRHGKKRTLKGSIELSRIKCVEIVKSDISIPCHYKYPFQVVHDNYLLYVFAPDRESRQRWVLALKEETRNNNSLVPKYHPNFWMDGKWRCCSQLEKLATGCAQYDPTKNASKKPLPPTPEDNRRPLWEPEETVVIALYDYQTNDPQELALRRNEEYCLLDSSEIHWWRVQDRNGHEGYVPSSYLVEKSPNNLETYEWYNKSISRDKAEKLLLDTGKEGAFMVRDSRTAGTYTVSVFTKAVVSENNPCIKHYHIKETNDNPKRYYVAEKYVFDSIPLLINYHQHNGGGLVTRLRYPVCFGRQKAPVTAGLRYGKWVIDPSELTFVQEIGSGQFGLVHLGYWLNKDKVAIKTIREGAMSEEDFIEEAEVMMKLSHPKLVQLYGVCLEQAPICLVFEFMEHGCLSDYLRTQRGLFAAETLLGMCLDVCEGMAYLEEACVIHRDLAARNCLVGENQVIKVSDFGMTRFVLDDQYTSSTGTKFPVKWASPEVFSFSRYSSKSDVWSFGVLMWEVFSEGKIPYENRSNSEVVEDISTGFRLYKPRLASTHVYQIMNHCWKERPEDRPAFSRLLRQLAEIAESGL

Take `Clc1cnc2nc1NCCCCCNCc1cccc(c1)N2` [Compound 8, 1^5-chloro-2,5,11-triaza-1(2,4)-pyrimidina-3(1,3)-benzenacyclodecaphane]: the inhibition at 0.1 µM was less than 50% on CDK6/CycD3; less than 50% on CDK1/CycE1; less than 50% at CDK19/CycC; 50 to 75% on CDK3/CycE1; less than 50% on CDK6/CycD 1; less than 50% on CDK1/CycB1. Also, the inhibition at 0.01 µM at RET is less than 25%; at TYK2, less than 25%; at JAK2, 25 to 49%; at JAK1, less than 25%; on ITK, less than 25%; at LRRK2, less than 25%. The inhibition at 0.01 µM at CDK7 and on JAK3 was less than 25% in each case.
